Results: US20050171358A1 (priority 2002, published 2005)

Assays:
[1] = tested on: Phytophthora infestans; assay type: in vivo; conditions: 125 ppm, 200 L/10 a spray on tomato (5 leaf stage), inoculated next day; diseased area rates of third to fifth true leaves after 3 days in green house, graded by Table 5
[2] = tested on: Pyricularia oryzae; assay type: in vivo; conditions: 200 ppm spray on rice (Koshihikari, 3 leaf stage), inoculated next day; lesion numbers on third leaves after 7 days in green house, graded by Table 5
[3] = tested on: Colletotrichum lagenarium; conditions: 200 ppm spray on cucumber (3 leaf stage), inoculated next day; lesion numbers on first and second leaves after 7 days in green house, graded by Table 5

SMILES	Evaluation (effect for tomato late blight) [1]	Evaluation (effect for rice blast) [2]	Evaluation (effect for cucumber anthracnose) [3]
COc1ccc(C(=O)NCc2cc(CN3Cc4ccccc4C3)no2)cc1	1 (21˜41)	–	–
O=C(Cc1ccccc1)NCc1cc(CCl)no1 [I-67, N-[(3-chloromethyl-5-isoxazolyl)methyl]phenylacetamide]	2 (11˜20)	–	–
O=C(NCc1cc(CCl)no1)C1CCCCC1 [III-233, N-[(3-chloromethyl-5-isoxazolyl)methyl]cyclohexanecarboxamide]	2 (11˜20)	–	–
O=C(NCc1cc(CCl)no1)c1ccc(Br)cc1 [III-260, N-[(3-chloromethyl-5-isoxazolyl)methyl]-4-bromobenzamide]	3 (6˜10)	–	–
O=C(NCc1cc(CCl)no1)c1ccc(C(F)(F)F)cc1 [III-261, N-[(3-chloromethyl-5-isoxazolyl)methyl]-4-trifluoromethylbenzamide]	2 (11˜20)	–	–
COc1ccc(C(=O)NCc2cc(COc3ccc(-n4cncn4)cc3)no2)cc1 [IV-73]	–	2 (11˜20)	3 (6˜10)
COc1ccc(C(=O)NCc2cc(CON=Cc3ccccc3)no2)cc1 [IV-74, {3-[(4-methoxyphenyl)carbonylaminomethyl]-5-isoxazolyl]methoxyiminobenzyl]	–	4 (1˜5)	3 (6˜10)
CO/N=C/c1ccc(OCc2cc(CNC(=O)c3ccc(OC)cc3)on2)cc1 [IV-75]	–	2 (11˜20)	3 (6˜10)
COc1ccc(C(=O)NCc2cc(COc3c(C)cccc3C)no2)cc1 [IV-80, N-{[3-(2,6-dimethylphenyl)oxymethyl-5-isoxazolyl]methyl}-4-methoxybenzamide]	–	4 (1˜5)	4 (1˜5)
COc1ccc(C(=O)NCc2cc(C(=O)Nc3ccccc3)no2)cc1 [IV-84, N-[(3-phenylaminocarbonyl-5-isoxazolyl)methyl]-4-methoxybenzamide]	–	5 (0)	5 (0)
COc1ccc(C(=O)NCc2cc(COc3c(F)cccc3F)no2)cc1 [IV-86, N-{[3-(2,6-difluorophenyl)oxymethyl-5-isoxazolyl]methyl}-4-methoxybenzamide]	–	5 (0)	5 (0)
COc1ccc(C(=O)NCc2cc(COc3ccc(C(C)=O)cc3)no2)cc1 [IV-87, N-{[3-(4-acetylphenyl)oxymethyl-5-isoxazolyl]methyl}-4-methoxybenzamide]	–	5 (0)	4 (1˜5)
CNC(=O)c1ccc(OCc2cc(CNC(=O)c3ccc(OC)cc3)on2)cc1 [IV-88, N-{[3-(4-methylaminocarbonylphenyl)oxymethyl-5-isoxazolyl]methyl}-4-methoxybenzamide]	–	3 (6˜10)	3 (6˜10)
COc1ccc(C(=O)NCc2cc(/C=C/c3ccco3)no2)cc1 [IV-89, N-{[3-(2-(2-furyl)ethenyl)-5-isoxazolyl]methyl}-4-methoxybenzamide]	–	5 (0)	5 (0)
COc1ccc(C(=O)NCc2cc(COc3ccncc3)no2)cc1 [IV-90, N-{[3-(4-pyridyl)oxymethyl-5-isoxazolyl]methyl}-4-methoxybenzamide]	–	3 (6˜10)	3 (6˜10)
COc1ccc(C(=O)NCc2cc(COc3ccccn3)no2)cc1 [IV-92, N-{[3-(2-pyridyl)oxymethyl-5-isoxazolyl]methyl}-4-methoxybenzamide]	–	4 (1˜5)	3 (6˜10)
COc1ccc(C(=O)NCc2cc(C(=O)Nc3ccc(OC(F)F)cc3)no2)cc1 [IV-93, N-{[3-(4-difluoromethyloxyphenyl)aminocarbonyl-5-isoxazolyl]methyl}-4-methoxybenzamide]	–	4 (1˜5)	3 (6˜10)
COc1ccc(NC(=O)c2cc(CNC(=O)c3ccc(OC)cc3)on2)cc1 [IV-94, N-{[3-(4-methoxyphenyl)aminocarbonyl-5-isoxazolyl]methyl}-4-methoxybenzamide]	–	2 (11˜20)	3 (6˜10)
COc1ccc(C(=O)NCc2cc(C(=O)Nc3ccc(F)cc3)no2)cc1 [IV-95, N-{[3-(4-fluorophenyl)aminocarbonyl-5-isoxazolyl]methyl}-4-methoxybenzamide]	–	4 (1˜5)	4 (1˜5)

SMILES	Evaluation (effect for tomato late blight) [1]	Evaluation (effect for rice blast) [2]	Evaluation (effect for cucumber anthracnose) [3]
COc1ccc(C(=O)NCc2cc(C(=O)Nc3ccccc3Cl)no2)cc1 [IV-96, N-{[3-(2-chlorophenyl)aminocarbonyl-5-isoxazolyl]methyl}-4-methoxybenzamide]	–	4 (1˜5)	4 (1˜5)
COc1ccc(C(=O)NCc2cc(C(=O)Nc3ccc(C#N)cc3)no2)cc1 [IV-97, N-{[3-(4-cyanophenyl)aminocarbonyl-5-isoxazolyl]methyl}-4-methoxybenzamide]	–	5 (0)	5 (0)
O=C(/C=C/c1ccccc1)NCc1cc(COc2ccccc2)no1 [IV-99, N-[(3-phenoxymethyl-5-isoxazolyl)methyl]-β-phenylacrylamide]	–	4 (1˜5)	4 (1˜5)
COc1ccc(C(=O)NCc2cc(C(=O)Nc3cccc(Cl)c3)no2)cc1 [IV-105, N-{[3-(3-chlorophenyl)aminocarbonyl-5-isoxazolyl]methyl}-4-methoxybenzamide]	–	3 (6˜10)	3 (6˜10)
COc1ccc(C(=O)NCc2cc(C(=O)Nc3ccc(F)cc3F)no2)cc1 [IV-107, N-{[3-(2,4-difluorophenyl)aminocarbonyl-5-isoxazolyl]methyl}-4-methoxybenzamide]	–	5 (0)	5 (0)
COc1ccc(C(=O)NCc2cc(C(=O)Nc3ccc(C)cc3)no2)cc1 [IV-108, N-{[3-(4-tolyl)aminocarbonyl-5-isoxazolyl]methyl}-4-methoxybenzamide]	–	2 (11˜20)	2 (11˜20)
COc1ccc(C(=O)NCc2cc(C#Cc3ccccc3)no2)cc1 [IV-110, N-[(3-phenylethynyl-5-isoxazolyl)methyl]-4-methoxybenzamide]	–	5 (0)	5 (0)
COCc1cc(CNC(=O)c2ccc(OC)cc2)on1 [IV-111, N-[(3-methoxymethyl-5-isoxazolyl)methyl]-4-methoxybenzamide]	–	3 (6˜10)	3 (6˜10)
COc1ccc(C(=O)NCc2cc(C(=O)Nc3ccccc3C#N)no2)cc1 [IV-112, N-{[3-(2-cyanophenyl)aminocarbonyl-5-isoxazolyl]methyl}-4-methoxybenzamide]	–	2 (11˜20)	3 (6˜10)
O=C(NCc1cc(C(=O)Nc2ccccc2)no1)c1ccccc1 [IV-113, N-[(3-phenylaminocarbonyl-5-isoxazolyl)methyl]benzamide]	–	4 (1˜5)	4 (1˜5)
O=C(NCc1cc(C(=O)Nc2ccccc2)no1)c1ccc(Cl)cc1 [IV-114, N-[(3-phenylaminocarbonyl-5-isoxazolyl)methyl]-4-chlorobenzamide]	–	5 (0)	5 (0)
Cc1ccc(C(=O)NCc2cc(C(=O)Nc3ccccc3)no2)cc1 [IV-115, N-[(3-phenylaminocarbonyl-5-isoxazolyl)methyl]-4-methylbenzamide]	–	5 (0)	5 (0)
Cc1cccc(C(=O)NCc2cc(C(=O)Nc3ccccc3)no2)c1 [IV-116, N-[(3-phenylaminocarbonyl-5-isoxazolyl)methyl]-3-methylbenzamide]	–	5 (0)	4 (1˜5)
Cc1ccccc1C(=O)NCc1cc(C(=O)Nc2ccccc2)no1 [IV-117, N-[(3-phenylaminocarbonyl-5-isoxazolyl)methyl]-2-methylbenzamide]	–	4 (1˜5)	4 (1˜5)
COc1ccc(C(=O)NCc2cc(C(=O)NC(C)(C)C)no2)cc1 [IV-119, N-[(3-tert-butylaminocarbonyl-5-isoxazolyl)methyl]-4-methoxybenzamide]	–	2 (11˜20)	3 (6˜10)
COc1ccc(C(=O)NCc2cc(C(=O)NC3CCCC3)no2)cc1 [IV-120, N-[(3-cyclopentylaminocarbonyl-5-isoxazolyl)methyl]-4-methoxybenzamide]	–	3 (6˜10)	2 (11˜20)
O=C(NCc1cc(COc2ccccc2)no1)C1CCCCC1 [IV-121, N-[(3-phenoxymethyl-5-isoxazolyl)methyl)cyclohexanecarboxamide]	–	4 (1˜5)	4 (1˜5)
O=C(NCc1cc(COc2ccccc2)no1)c1cc(Cl)nc(Cl)c1 [IV-122, N-[(3-phenoxymethyl-5-isoxazolyl)methyl]-2,6-dichloropyridine-4-carboxamide]	–	3 (6˜10)	2 (11˜20)
COc1ccc(C(=O)NCc2cc(/C=N/OCc3ccccc3)no2)cc1 [IV-124, N-[(3-benzyloxyiminomethyl-5-isoxazolyl)methyl]-4-methoxybenzamide]	–	5 (0)	5 (0)
